Source: publication PMC7179419 (Molecules, 2020)
Read-outs that look alike come from different tables or passages of the source.

Tests used:
tubulin = system: tubulin; parameters: method as in PMID 2708333; details: lower affinity relative to colchicine; cited from earlier work
[1] = system: human colon adenocarcinoma cell line (LoVo); test: cells; format: cell-based; details: for IC50: LoVo, 72 h, read-out: LoVo IC50; for SI (LoVo): SI = IC50 BALB/3T3 / IC50 LoVo
Protocol: (§1) For a more accurate evaluation of cytotoxic activity, the effect on normal murine embryonic fibroblast cell line (BALB/3T3) was also tested according to the previously published procedure. Detailed information concerning antiproliferation assay can be found in Supplementary Materials. […]
(§2) The antiproliferative activity
(§3) Four human cancer cell lines and one murine normal cell line were used to evaluate […]
(§4) (A549), human breast adenocarcinoma (MCF-7), human colon adenocarcinoma cell lines sensitive and resistant to doxorubicin (LoVo), respectively, and normal murine embryonic fibroblast cell line (BALB/3T3). The BALB/3T3 cell line was purchased from the American Type Culture Collection (ATCC, Manassas, VA, USA), A549 and MCF-7 cell lines—from European Collection of Authenticated Cell Cultures (Salisbury, UK), LoVo cell line was purchased from the ATCC (ATCC, Manassas, VA, USA). All the cell lines are maintained in the Institute of Immunology and Experimental Therapy (IIET), Wroclaw, Poland. Human lung adenocarcinoma cell line was cultured in mixture of OptiMEM and RPMI 1640 (1:1) medium (IIET, Wroclaw, Poland), supplemented with 5% fetal bovine serum (GE Healthcare, Logan, UT, USA) and 2 mM L-glutamine (Sigma-Aldrich, Merck KGaA, Saint Louis, MO, USA). Human breast adenocarcinoma cell line was cultured in mixture of Eagle medium (IIET, Wroclaw, Poland), supplemented with 10% fetal bovine serum, 2 mM L-glutamine, 8 μg/mL insulin and 1% amino-acids (Sigma-Aldrich, Merck KGaA, Saint Louis, MO, USA).
(§5) Human colon adenocarcinoma cell lines were cultured in mixture of OptiMEM and RPMI 1640 (1:1) medium (IIET, Wroclaw, Poland), supplemented with 5% fetal bovine serum (GE Healthcare, Logan UT, USA), 2 mM L-glutamine, 1 mM sodium pyruvate (Sigma-Aldrich, Merck KGaA, Saint Louis, MO, USA). Murine embryonic fibroblast cells were cultured in […]
(§6) Dulbecco medium (Life Technologies Limited, Paisley, UK), supplemented with 10% fetal bovine serum (GE Healthcare, Logan, UT, USA) and 2 mM glutamine (Sigma-Aldrich, Merck KGaA, Saint Louis, MO, USA). All culture media contained antibiotics: 100 U/mL penicillin and 100 μg/mL streptomycin (Polfa-Tarchomin, Warsaw, Poland). All cell lines were cultured during entire experiment in humid atmosphere at 37 °C and 5% CO2. Cells were tested for mycoplasma contamination by mycoplasma detection kit for conventional […]
(§7) The procedure is repeated every year or in the case of less frequently used lines:
(§8) The Antiproliferative Assays In Vitro
(§9) Twenty-four hours before adding the tested compounds, all cell lines were seeded in 384-well plates (Sarstedt, Nümbrecht, Germany) in appropriate media with 1x103 or 1,5x103

[2] = system: human lung adenocarcinoma (A549); test: cells; format: cell-based; details: for IC50: A549, 72 h, read-out: A549 IC50; for SI (A549): SI = IC50 BALB/3T3 / IC50 A549
Protocol: as §1, §2, §3, §4, §5, §6, §7, §8, §9

[3] = system: human breast adenocarcinoma (MCF-7); test: cells; format: cell-based; details: for IC50: read-out: MCF-7 IC50; for SI (MCF-7): SI = IC50 BALB/3T3 / IC50 MCF-7
Protocol: as §1, §2, §3, §4, §5, §6, §7, §8, §9

[4] = system: normal murine embryonic fibroblast cell line (BALB/3T3); test: Antiproliferative assay in vitro (SRB, 72 h), BALB/3T3 normal cells; format: cell-based; details: normal cell line BALB/3T3, 72 h, mean ± SD
Protocol: as §1, §2, §3, §4, §5, §6, §7, §8, §9

## COc1cc2c(c(OC)c1OC)-c1ccc(=O)c(OC)cc1[C@@H](NC(C)=O)CC2 [isocolchicine]
tubulin
  affinity for binding to tubulin, times lower than colchicine: 500 times

## CCOC(=O)Oc1c(OC)c(OC)cc2c1-c1ccc(SC)c(=O)cc1[C@@H](NC(C)=O)CC2 [Compound 4f, Ethyl Carbonate of 1-demethylthiocolchicine]
[1]; Homo sapiens
  IC50: 790 ± 160 nM
[1]
  SI (LoVo): 1.31
[2]; Homo sapiens
  IC50: 960 ± 130 nM
[2]
  SI (A549): 1.08
[3]; Homo sapiens, MCF7, 72 h
  IC50: 950 ± 200 nM
[3]
  SI (MCF-7): 1.09
[4]; Mus musculus
  IC50: 1030 ± 200 nM

## COC(=O)Oc1c(OC)c(OC)cc2c1-c1ccc(SC)c(=O)cc1C(NC(C)=O)CC2 (stereo not drawn) [Compound 4e, Methyl Carbonate of 1-demethylthiocolchicine]
[1]; Homo sapiens
  IC50: 430 ± 190 nM
[1]
  SI (LoVo): 1.84
[2]; Homo sapiens
  IC50: 900 ± 90 nM
[2]
  SI (A549): 0.87
[3]; Homo sapiens, MCF7, 72 h
  IC50: 1020 ± 100 nM
[3]
  SI (MCF-7): 0.77
[4]; Mus musculus
  IC50: 780 ± 60 nM

## CCC(=O)Oc1c(OC)c(OC)cc2c1-c1ccc(SC)c(=O)cc1[C@@H](NC(C)=O)CC2 [Compound 4b, Propionyl Ester of 1-demethylthiocolchicine]
[2]; Homo sapiens
  IC50: 970 ± 40 nM
[3]; Homo sapiens, MCF7, 72 h
  IC50: 960 ± 130 nM
[4]; Mus musculus
  IC50: 750 ± 100 nM

## COc1cc2c(c(OC)c1OC)-c1ccc(OC(=O)C(C)C)c(=O)cc1[C@@H](NC(C)=O)CC2 [Compound 2c, Isobutyryl Ester of Colchiceine]
other
  melting point: 123 to 125 °C

## COc1cc2c(c(OC(C)=O)c1OC)-c1ccc(SC)c(=O)cc1C(NC(C)=O)CC2 (stereo not drawn) [Compound 4a, Acetyl Ester of 1-demethylthiocolchicine]
[1]; Homo sapiens
  IC50: 110 ± 20 nM
[2]; Homo sapiens
  IC50: 480 ± 150 nM
[2]
  SI (A549): 1.36
[3]; Homo sapiens, MCF7, 72 h
  IC50: 100 ± 20 nM
[4]; Mus musculus
  IC50: 650 ± 120 nM

## COc1cc2c(c(OC(=O)c3ccccc3)c1OC)-c1ccc(SC)c(=O)cc1[C@@H](NC(C)=O)CC2 [Compound 4d, Benzyl Ester of 1-demethylthiocolchicine]
[1]; Homo sapiens
  IC50: 100 ± 80 nM
[1]
  SI (LoVo): 4.71
[2]; Homo sapiens
  IC50: 600 ± 310 nM
[2]
  SI (A549): 0.75
[3]; Homo sapiens, MCF7, 72 h
  IC50: 780 ± 220 nM
[3]
  SI (MCF-7): 0.58
[4]; Mus musculus
  IC50: 450 ± 230 nM

## N.N.[Cl][Pt][Cl] [cisplatin, reference compound]
[1]; SRB, mean ± SD
  IC50: 3800 ± 280 nM
[1]
  SI (LoVo): 0.77
[2]; SRB, mean ± SD
  IC50: 3600 ± 250 nM
[2]
  SI (A549): 0.81
[3]; MCF-7, 72 h, SRB, mean ± SD
  IC50: 3050 ± 670 nM
[3]
  SI (MCF-7): 0.95
[4]
  IC50: 2910 ± 1830 nM

## COc1cc2c(c(OC)c1OC)-c1ccc(=O)c(O)cc1[C@@H](NC(C)=O)CC2 [Compound 1, 10-demethylcolchicine]
[1]; Homo sapiens
  IC50: 6000 ± 1880 nM
[1]
  SI (LoVo): 1.71
[2]; Homo sapiens
  IC50: 13000 ± 1790 nM
[2]
  SI (A549): 0.79
[3]; Homo sapiens, MCF7, 72 h
  IC50: 11200 ± 2520 nM
[3]
  SI (MCF-7): 0.91
[4]; Mus musculus
  IC50: 10200 ± 960 nM

## COc1cccc2c1C(=O)c1c(O)c3c(c(O)c1C2=O)C[C@@](O)(C(=O)CO)C[C@@H]3O[C@H]1C[C@H](N)[C@H](O)[C@H](C)O1 [doxorubicin, reference compound]
[1]; Homo sapiens, SRB, mean ± SD
  IC50: 80 ± 30 nM
[1]
  SI (LoVo): 0.49
[2]; Homo sapiens, SRB, mean ± SD
  IC50: 160 ± 30 nM
[2]
  SI (A549): 0.25
[3]; Homo sapiens, MCF7, MCF-7, 72 h, SRB, mean ± SD
  IC50: 150 ± 50 nM
[3]
  SI (MCF-7): 0.26
[4]; Mus musculus
  IC50: 40 ± 30 nM

## COc1cc2c(c(OC)c1OC)-c1ccc(OC(C)=O)c(=O)cc1[C@@H](NC(C)=O)CC2 [Compound 2a, Acetyl Ester of Colchiceine]
other
  melting point: 120 to 122 °C

## COc1cc2c(c(OC(=O)C(C)C)c1OC)-c1ccc(SC)c(=O)cc1[C@@H](NC(C)=O)CC2 [Compound 4c, Isobutyryl Ester of 1-demethylthiocolchicine]
[1]; Homo sapiens
  IC50: 560 ± 60 nM
[1]
  SI (LoVo): 1.27
[2]; Homo sapiens
  IC50: 890 ± 70 nM
[2]
  SI (A549): 0.80
[3]; Homo sapiens, MCF7, 72 h
  IC50: 860 ± 100 nM
[3]
  SI (MCF-7): 0.83
[4]; Mus musculus
  IC50: 710 ± 30 nM

## COc1cc2c(c(O)c1OC)-c1ccc(SC)c(=O)cc1C(NC(C)=O)CC2 (stereo not drawn) [Compound 3, 1-demethylthiocolchicine]
[1]; Homo sapiens
  IC50: 110 ± 30 nM
[2]; Homo sapiens
  IC50: 820 ± 20 nM
[2]
  SI (A549): 0.74
[3]; Homo sapiens, MCF7, 72 h
  IC50: 120 ± 50 nM
[3]
  SI (MCF-7): 4.92
[4]; Mus musculus
  IC50: 610 ± 140 nM
